# Experimental data as given in ChEMBL document CHEMBL1201862, “PubChem BioAssay data set” (2004).
# Calls of active or inactive are those of the source.
# Legend:
# [1] = target: Melanocortin receptor 4 (Homo sapiens, UniProt P32245); assay type: functional, cell-based;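 further: Cell-based assay with luminescence read-out, confirmatory dose-response testing for agonist activity of biased ligands at MC4R; human U2OS cells with tagged receptor and beta-arrestin; potency of agonists that increase receptor coupling to beta-arrestin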
# [2] = target: Beta-galactosidase (Escherichia coli, UniProt Q8VNN2); assay: Dose response counterscreen for EBI2 assay utilizing the enzyme, b-galactosidase.; assay type: functional
# [3] = target: T1, Apoptotic protease-activating factor 1 (Homo sapiens, UniProt O14727); assay: SAR analysis of small molecule Activators of Apaf-1 in a Fluorescent assay.; assay type: functional; settings: read-out: EC50_Mean
# T1 sequence (O14727 whole entry): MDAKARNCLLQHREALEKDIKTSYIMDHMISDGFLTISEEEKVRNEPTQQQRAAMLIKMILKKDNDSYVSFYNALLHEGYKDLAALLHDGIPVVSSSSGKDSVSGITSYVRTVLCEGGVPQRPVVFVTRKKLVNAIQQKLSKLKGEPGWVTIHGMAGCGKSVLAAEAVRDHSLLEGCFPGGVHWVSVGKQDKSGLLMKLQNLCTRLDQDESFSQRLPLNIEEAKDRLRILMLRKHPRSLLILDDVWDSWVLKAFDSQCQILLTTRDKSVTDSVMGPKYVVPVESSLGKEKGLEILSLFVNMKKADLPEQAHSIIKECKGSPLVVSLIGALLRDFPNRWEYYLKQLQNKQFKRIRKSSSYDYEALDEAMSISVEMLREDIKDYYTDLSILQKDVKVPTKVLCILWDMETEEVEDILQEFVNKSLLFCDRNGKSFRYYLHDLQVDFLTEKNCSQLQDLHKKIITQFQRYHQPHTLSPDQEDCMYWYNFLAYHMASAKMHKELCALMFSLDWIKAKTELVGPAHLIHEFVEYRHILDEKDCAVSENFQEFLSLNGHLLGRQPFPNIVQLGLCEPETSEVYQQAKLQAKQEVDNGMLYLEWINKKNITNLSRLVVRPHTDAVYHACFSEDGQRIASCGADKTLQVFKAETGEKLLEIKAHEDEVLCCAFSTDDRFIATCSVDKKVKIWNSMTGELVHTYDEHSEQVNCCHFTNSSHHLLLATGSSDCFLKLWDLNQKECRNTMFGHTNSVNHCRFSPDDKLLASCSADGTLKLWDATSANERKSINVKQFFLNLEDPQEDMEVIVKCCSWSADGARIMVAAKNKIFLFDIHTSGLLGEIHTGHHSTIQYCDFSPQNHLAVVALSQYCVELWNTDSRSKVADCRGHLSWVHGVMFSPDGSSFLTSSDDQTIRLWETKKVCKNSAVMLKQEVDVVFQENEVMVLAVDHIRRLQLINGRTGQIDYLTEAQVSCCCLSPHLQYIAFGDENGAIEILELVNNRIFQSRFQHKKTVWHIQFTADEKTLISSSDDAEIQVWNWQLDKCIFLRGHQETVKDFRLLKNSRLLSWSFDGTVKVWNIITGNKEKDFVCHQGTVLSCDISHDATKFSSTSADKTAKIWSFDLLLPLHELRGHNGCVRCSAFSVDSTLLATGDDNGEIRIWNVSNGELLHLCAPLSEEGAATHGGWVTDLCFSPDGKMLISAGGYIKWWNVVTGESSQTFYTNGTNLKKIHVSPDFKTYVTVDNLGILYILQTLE
# [4] = activation of miR-122 Renilla sensor silencing – cell-based, Huh7 psiCHECK-miR122, Renilla luciferase, cherry-picked, dose response (AID 651956); assay type: functional;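 further: huh7 hepatoma cells stably carrying a psiCHECK-2 miR-122 sensor plasmid; renilla luciferase signal reporting endogenous miR-122 activity after 48 h compound exposure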
# [5] = general mammalian cell viability loss – inhibitor set, cherry-pick, set 2, cytotoxicity control for miR-122 modulator project, dose response (AID 720697); assay type: functional, cell-based
# [6] = general mammalian cell viability loss – activator set, cherry-pick, cytotoxicity control for miR-122 modulator project, dose response (AID 720690); assay type: functional, cell-based;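 further: HEK293T human cells scored for general mammalian cytotoxicity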
# [7] = bead-based luminescence quenchers, dual-tagged ARNT – biochemical, AlphaScreen, cherry-pick, artefact control for ARNT-TACC3 interaction inhibitor project, dose response (AID 651705); assay type: functional;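 further: AlphaScreen bead proximity signal that flags compounds interfering with the detection technology; potency reflects signal decrease which marks the compound as an assay artifact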
# [8] = target: T1, Apoptotic protease-activating factor 1; assay type: functional
# [9] = tested on: INS1; assay: INS-1E survival protection against cytokine death – cell-based, luminescence, retest, dose response (AID 449756); assay type: functional; settings: Rattus norvegicus;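 further: cell death triggered by IL-1 beta plus TNF-alpha plus IFN-gamma mixture; protective hits raise ATP signal compared with cytokine alone wells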
# [10] = target: T2, Sentrin-specific protease 8 (Homo sapiens, UniProt Q96LD8); assay type: functional
# T2 sequence (Q96LD8 whole entry): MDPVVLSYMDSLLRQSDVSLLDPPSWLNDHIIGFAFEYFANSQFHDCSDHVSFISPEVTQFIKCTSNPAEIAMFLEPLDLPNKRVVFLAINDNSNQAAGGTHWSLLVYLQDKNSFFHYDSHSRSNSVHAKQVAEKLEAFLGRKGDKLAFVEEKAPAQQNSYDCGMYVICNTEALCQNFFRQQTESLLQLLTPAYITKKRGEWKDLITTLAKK
# [11] = target: T2, Sentrin-specific protease 8; assay type: functional; remark: listed apart in the source
# [12] = A549 cell cytotoxicity, dose response, cytotoxicity control, plate reader, cherry-pick, antagonist series (AID 743412); assay type: functional, cell-based
# [13] = toxicity toward HepG2 liver cells – cell-based, plate reader, cherry-pick, antagonist series, cytotoxicity control, dose response (AID 743416); assay type: functional
# [14] = viability loss in HEK293 cells – cell-based, plate reader, cherry-picked samples, cytotoxicity control, dose response (AID 743446); assay type: functional
# [15] = tested on: BJ; assay: BJ-TERT fibroblast viability loss – cell-based, RAS-independent, luminescence, dose response (AID 1933); assay type: functional; settings: Homo sapiens
# [16] = tested on: BJ; assay: cells; assay type: functional, cell-based; settings: Homo sapiens
# [17] = tested on: BJ; assay: BJ-TERT-LT-ST fibroblast viability loss – cell-based, RAS-independent, luminescence, dose response (AID 1935); assay type: functional; settings: Homo sapiens;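 further: BJ fibroblasts immortalized with TERT plus LT and ST oncogenes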
# [18] = DRD fibroblast viability loss – cell-based, non-viral oncogenic, luminescence, dose response (AID 1934); assay type: functional; settings: Homo sapiens
# [19] = tested on: BJ; assay: growth inhibition of engineered Ras-driven BJ cells – cell-based, alamar blue fluorescence, cherrypicked samples, dose response (AID 2631); assay type: functional; settings: Homo sapiens;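 further: confirmatory dose-response assay in RAS-dependent BJ fibroblasts engineered with TERT, LT and ST, with cytotoxicity read by fluorescence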
# [20] = target: T3, Rac GTPase-activating protein 1 (Homo sapiens, UniProt Q9H0H5); assay: blockers of MgcRacGAP-driven Rac1 GTP hydrolysis – biochemical, ADP Hunter fluorescence, primary and confirmatory, confirmation (AID 624330); assay type: functional
# T3 sequence (Q9H0H5 whole entry): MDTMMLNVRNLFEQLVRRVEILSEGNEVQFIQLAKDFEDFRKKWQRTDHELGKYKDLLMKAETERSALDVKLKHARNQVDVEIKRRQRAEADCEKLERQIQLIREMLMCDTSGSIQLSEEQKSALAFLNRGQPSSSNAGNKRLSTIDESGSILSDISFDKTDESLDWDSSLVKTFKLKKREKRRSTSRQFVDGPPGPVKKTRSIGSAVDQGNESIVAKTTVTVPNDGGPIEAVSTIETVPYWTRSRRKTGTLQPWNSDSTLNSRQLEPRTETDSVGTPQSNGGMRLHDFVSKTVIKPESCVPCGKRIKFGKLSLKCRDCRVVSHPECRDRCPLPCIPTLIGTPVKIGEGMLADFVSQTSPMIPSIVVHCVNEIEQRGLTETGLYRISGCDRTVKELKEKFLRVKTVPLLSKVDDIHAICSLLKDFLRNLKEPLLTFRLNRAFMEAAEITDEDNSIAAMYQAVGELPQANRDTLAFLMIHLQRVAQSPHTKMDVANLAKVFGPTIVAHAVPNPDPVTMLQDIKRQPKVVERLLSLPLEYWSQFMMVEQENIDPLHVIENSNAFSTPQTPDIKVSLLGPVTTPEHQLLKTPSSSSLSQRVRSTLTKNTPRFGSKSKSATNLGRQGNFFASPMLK
# [21] = tested on: Streptococcus sp. 'group A'; assay: Streptococcus pyogenes SK(-)GAS viability under kanamycin – luminescence, BacTiterGlo, confirmation, counter-screen for streptokinase expression inhibitor project, dose response (AID 1900); assay type: functional, organism-based
# [22] = target: T4, Streptokinase A (Streptococcus pyogenes serotype M1, UniProt P10520); assay: viability-normalized secreted streptokinase activity reduction – plasminogen activation absorbance, OD405, dose response (AID 1914); assay type: functional, Streptococcus pyogenes M1 GAS;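 further: secreted streptokinase activity via plasminogen activation per viability signal from cell pellet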
# T4 sequence (P10520 whole entry): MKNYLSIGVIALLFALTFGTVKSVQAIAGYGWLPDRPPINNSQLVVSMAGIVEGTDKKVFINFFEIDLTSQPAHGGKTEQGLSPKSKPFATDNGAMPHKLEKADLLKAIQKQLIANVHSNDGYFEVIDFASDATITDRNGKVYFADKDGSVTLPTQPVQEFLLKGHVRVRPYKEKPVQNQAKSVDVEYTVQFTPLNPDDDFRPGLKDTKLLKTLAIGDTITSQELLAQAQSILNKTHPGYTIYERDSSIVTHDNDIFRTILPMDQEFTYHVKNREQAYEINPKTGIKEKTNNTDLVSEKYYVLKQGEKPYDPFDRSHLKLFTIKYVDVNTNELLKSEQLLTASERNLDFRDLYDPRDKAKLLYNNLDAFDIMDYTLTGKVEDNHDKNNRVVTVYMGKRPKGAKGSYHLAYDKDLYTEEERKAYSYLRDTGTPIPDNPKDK
# [23] = tested on: Streptococcus; assay: GAS UMAA2166 growth inhibition – luminescence, BacTiterGlo, counter-screen for streptokinase expression inhibitor project, dose response (AID 1915); assay type: functional, organism-based;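 further: potency for reduction of bacterial viability or growth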
# 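Wherever EC50 Mean is given: caspase-3 cleavage of fluorogenic Rh110 DEVD substrate downstream of apoptosome activation.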
# Sequence of Melanocortin receptor 4 (P32245 whole entry): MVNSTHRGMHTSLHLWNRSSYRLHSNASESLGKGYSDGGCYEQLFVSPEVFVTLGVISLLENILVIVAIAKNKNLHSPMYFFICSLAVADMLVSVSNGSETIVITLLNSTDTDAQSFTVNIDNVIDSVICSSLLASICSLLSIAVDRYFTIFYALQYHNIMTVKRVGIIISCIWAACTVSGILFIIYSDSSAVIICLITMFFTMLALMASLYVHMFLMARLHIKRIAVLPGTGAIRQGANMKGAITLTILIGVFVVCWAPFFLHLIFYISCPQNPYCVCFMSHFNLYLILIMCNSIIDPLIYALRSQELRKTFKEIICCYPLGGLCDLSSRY
# Sequence of Beta-galactosidase (Q8VNN2 whole entry): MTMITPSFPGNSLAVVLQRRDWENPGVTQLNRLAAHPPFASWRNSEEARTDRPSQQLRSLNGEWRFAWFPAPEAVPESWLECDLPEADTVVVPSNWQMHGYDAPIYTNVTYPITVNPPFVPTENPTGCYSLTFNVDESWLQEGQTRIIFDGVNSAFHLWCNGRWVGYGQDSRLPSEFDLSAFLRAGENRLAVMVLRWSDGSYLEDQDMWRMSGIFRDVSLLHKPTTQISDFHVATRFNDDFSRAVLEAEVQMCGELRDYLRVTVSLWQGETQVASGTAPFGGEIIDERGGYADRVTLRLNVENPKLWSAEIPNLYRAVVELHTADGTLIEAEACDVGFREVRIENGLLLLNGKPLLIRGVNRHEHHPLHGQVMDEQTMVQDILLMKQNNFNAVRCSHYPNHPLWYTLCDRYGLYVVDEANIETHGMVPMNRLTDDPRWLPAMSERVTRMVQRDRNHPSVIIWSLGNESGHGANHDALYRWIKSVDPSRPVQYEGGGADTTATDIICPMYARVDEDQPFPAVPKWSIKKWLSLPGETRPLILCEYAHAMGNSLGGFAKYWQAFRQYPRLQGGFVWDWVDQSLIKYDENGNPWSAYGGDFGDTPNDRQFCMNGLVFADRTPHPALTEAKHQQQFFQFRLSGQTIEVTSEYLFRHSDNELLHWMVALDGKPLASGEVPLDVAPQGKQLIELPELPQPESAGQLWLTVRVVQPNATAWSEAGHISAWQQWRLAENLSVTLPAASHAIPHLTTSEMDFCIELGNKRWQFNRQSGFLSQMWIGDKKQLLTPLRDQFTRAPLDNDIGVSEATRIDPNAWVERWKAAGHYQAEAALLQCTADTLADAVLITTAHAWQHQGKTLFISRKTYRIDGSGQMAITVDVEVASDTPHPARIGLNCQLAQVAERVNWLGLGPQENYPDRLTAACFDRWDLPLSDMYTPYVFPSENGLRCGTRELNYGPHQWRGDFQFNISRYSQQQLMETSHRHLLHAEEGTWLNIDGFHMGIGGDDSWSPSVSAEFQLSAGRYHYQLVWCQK
structure (smiles),measurement,setting,value
CC(=O)Nc1cc(-c2ccccc2)cn2c(-c3ccc(F)cc3)cnc12,EC50,[1],> 89.2 µM (inactive)
O=C(c1ccc(-n2cccc2)cc1)N1CCN(Cc2ccccc2)CC1,IC50,[2],> 80 µM (inactive)
COc1ccc(S(=O)(=O)N2CCCCC2)cc1NC(=O)CCS(=O)(=O)c1ccc(C)cc1,EC50,[3],> 100 µM (inactive)
CCN(CC(=O)NCc1cccs1)C(=O)/C=C/c1ccc(C)cc1,IC50,[2],> 80 µM (inactive)
C[C@@H]1CCCCO[C@H](CN(C)CC2CCCCC2)[C@H](C)CN([C@@H](C)CO)C(=O)c2cc(NC(=O)Nc3cccc4ccccc34)ccc2O1,AC50,[4],11.1 µM (active)
same,AC50,[5],0.587 µM (active)
same,AC50,[6],10.6 µM (active)
COc1ccc(-c2cc(NC(C)=O)c3ncc(-c4ccccc4)n3c2)c(OC)c1,EC50,[1],> 89.2 µM (inactive)
CC(=O)Nc1ccc(C(C)C)cc1,EC50,[3],> 100 µM (inactive)
N#Cc1ccc(OCC(=O)NCCCn2ccnc2)cc1,AC50,[7],95.7 µM (active)
O=C(/C=C/c1ccc(Br)cc1)N1CCN(c2cccc(C(F)(F)F)c2)CC1,IC50,[2],> 80 µM (inactive)
Cc1ccc(NC(=O)N2CCC(O)(c3ccc(Cl)cc3)CC2)cc1,IC50,[2],> 80 µM (inactive)
Cc1nnc(NC(=O)c2ccc(S(=O)(=O)N3CCCCC3C)cc2)o1 (stereo not drawn),AC50,[7],92.5 µM (active)
CCCCOc1cc(NCc2ccccc2)c2ncn(C(C)C)c2c1,IC50,[8],13.4 µM (active)
same,AC50,[9],8.11 µM (active)
same,IC50,[10],12.9 µM (active)
same,IC50,[11],12.2 µM (active)
same,AC50,[12],17.3 µM (active)
same,AC50,[13],20.3 µM (active)
same,AC50,[14],> 52 µM (inactive)
O=CNc1cc(-c2ccsc2)cn2c(-c3ccccc3)cnc12,EC50,[1],> 89.2 µM (inactive)
CN(C)c1ccccc1-c1cc(NC=O)c2ncc(-c3cccc(C(F)(F)F)c3)n2c1,EC50,[1],> 89.2 µM (inactive)
Cc1ccc(C(=O)N2CCN(c3ccc(NC(=O)COc4ccccc4C)cc3)CC2)cc1,AC50,[4],18.7 µM (active)
same,AC50,[5],15.2 µM (active)
same,AC50,[6],30.9 µM (active)
O=C(c1ccco1)N1CCN(C(=O)C2CC(c3ccc(F)cc3)=NO2)CC1 (stereo not drawn),EC50,[3],> 100 µM (inactive)
CCOc1cc(/C=C2\CN(C)C/C(=C\c3ccc(O)c(OCC)c3)C2=O)ccc1O,EC50,[15],3.26 µM (inconclusive)
same,EC50,[16],4.94 µM (inconclusive)
same,EC50,[17],2.64 µM (inconclusive)
same,EC50,[18],2.93 µM (active)
same,EC50,[19],0.571 µM (active)
same,IC50,[20],38.9 µM (active)
O=C(COC(=O)c1ccco1)Nc1nnc(-c2ccccc2)o1,AC50,[7],133 µM (active)
CCOc1ccccc1NC(=O)CCS(=O)(=O)c1cc2c(cc1Br)CCN2C(=O)C1CC1,EC50,[3],> 100 µM (inactive)
Cc1ccc(-c2cnc(N)n2C)cc1C,EC50,[21],3.86 µM (active)
same,EC50,[22],89.4 µM (active)
same,EC50,[23],> 150 µM (not active)
same,AC50,[7],71.8 µM (active)
